SMILES strings stand for the structures.

Neuronal acetylcholine receptor; alpha4/beta2, sequence (P09483 whole entry): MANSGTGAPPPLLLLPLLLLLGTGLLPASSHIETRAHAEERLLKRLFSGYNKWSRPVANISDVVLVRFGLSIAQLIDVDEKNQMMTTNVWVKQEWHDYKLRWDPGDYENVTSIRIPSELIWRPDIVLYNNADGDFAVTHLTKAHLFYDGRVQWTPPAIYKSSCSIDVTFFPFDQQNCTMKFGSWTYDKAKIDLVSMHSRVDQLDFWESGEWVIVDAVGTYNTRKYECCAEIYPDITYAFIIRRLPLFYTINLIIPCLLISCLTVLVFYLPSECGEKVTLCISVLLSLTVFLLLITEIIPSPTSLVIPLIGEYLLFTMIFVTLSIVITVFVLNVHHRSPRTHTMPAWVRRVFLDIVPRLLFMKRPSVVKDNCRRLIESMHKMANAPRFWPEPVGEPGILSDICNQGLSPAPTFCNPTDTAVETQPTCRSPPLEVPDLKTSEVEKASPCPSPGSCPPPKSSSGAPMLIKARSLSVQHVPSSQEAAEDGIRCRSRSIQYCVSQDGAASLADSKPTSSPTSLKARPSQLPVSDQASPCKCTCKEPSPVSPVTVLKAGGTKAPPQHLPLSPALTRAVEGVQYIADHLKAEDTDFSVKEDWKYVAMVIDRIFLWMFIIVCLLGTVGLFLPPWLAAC
Neuronal acetylcholine receptor; alpha4/beta2, sequence (P12390 whole entry): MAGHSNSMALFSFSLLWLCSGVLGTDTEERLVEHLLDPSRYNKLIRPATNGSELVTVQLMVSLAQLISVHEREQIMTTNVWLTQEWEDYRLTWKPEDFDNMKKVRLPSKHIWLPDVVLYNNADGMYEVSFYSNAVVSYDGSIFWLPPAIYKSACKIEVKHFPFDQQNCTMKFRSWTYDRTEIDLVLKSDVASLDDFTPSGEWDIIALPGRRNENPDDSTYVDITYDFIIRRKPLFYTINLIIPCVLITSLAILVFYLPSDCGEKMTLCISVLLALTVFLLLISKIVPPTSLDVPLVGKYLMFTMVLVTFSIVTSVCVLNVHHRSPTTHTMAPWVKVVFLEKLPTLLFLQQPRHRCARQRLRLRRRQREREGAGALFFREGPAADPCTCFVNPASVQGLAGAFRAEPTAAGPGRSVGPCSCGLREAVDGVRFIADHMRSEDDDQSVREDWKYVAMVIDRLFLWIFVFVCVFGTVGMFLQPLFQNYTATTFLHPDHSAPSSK

The assay addresses Neuronal acetylcholine receptor; alpha4/beta2 (Rattus norvegicus, UniProt P09483+P12390). The experiment in a line: Binding affinity for alpha4 beta-2 nAChR using [3H]epibatidine in rat brain. The assay is classed as tissue-based.
In the case of `Fc1cncc(OC[C@@H]2CCN2)c1`, the affinity, expressed as Ki, was 0.025 nM.
Regarding `Fc1ccc(OC[C@@H]2CCN2)cn1`, the Ki (usually the equilibrium dissociation constant of an inhibitor or competing ligand from its target) worked out at 0.025 nM.
To `Clc1cncc(OC[C@@H]2CCN2)c1` belongs 0.03 nM.
Take `Brc1cncc(OC[C@@H]2CCN2)c1`: the Ki worked out at 0.021 nM.
`c1cncc(OC[C@@H]2CCN2)c1`: the Ki was determined as 0.017 nM.
Molecule `Ic1ccc(OC[C@@H]2CCN2)cn1` yielded a Ki of 0.15 nM.
To `Ic1ncccc1OC[C@@H]1CCN1` belongs greater than 0.001 nM.
To `Brc1ncccc1OC[C@@H]1CCN1` belongs 0.24 nM.
For `Clc1ncccc1OC[C@@H]1CCN1`, the Ki was 0.0084 nM.
